# Experimental data taken from US20230220224A1, “AQUEOUS DISPERSION AND IMAGE RECORDING METHOD” (FUJIFILM CORPORATION, priority 2020, published 2023).
# Settings: in water at 20° C.
smiles,measurement,value
"CN1C(C)(C)CC(O)CC1(C)C [Example 4-OH-PMP, 4-hydroxy-1,2,2,6,6-pentamethylpiperidine]",Neutralizer Solubility in water,4.8 g/100 mL
"CC(C)NC(C)C [DIPA, diisopropylamine]",Neutralizer Solubility in water,10 g/100 mL
